The values that follow come from US12421253B2 (Mirati Therapeutics, Inc., priority 2020, dated 2025).

The IC50 is the concentration at which inhibition is half-maximal. A higher IC50 goes with lower potency.

The target in one assay is T1, KRas^WT (Homo sapiens, UniProt P01116).
T1 construct: […]; biotin (biotinylated); purchased Accelegan Inc
In words: KRas binding assay (TR-FRET displacement of Cy5 labelled tracer). (In TR-FRET formats the signal depends on donor and acceptor labels being close together.)

The target in the next assay is T2, KRas^G12A (Homo sapiens, UniProt P01116, G12A).
T2 construct: […]; biotin (biotinylated); purchased Accelegan Inc
T2 sequence (P01116 1-169 isoform P01116-2 G12A): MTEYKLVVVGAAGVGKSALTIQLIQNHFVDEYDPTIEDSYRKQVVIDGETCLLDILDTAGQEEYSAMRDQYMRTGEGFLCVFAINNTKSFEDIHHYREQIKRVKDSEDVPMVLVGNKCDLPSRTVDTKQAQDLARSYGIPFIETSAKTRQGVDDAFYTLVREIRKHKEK
The description is as above.

The target in a further assay is T3, KRas^G12D (Homo sapiens, UniProt P01116, G12D).
T3 construct: […]; biotin (biotinylated); purchased Accelegan Inc
T3 sequence (P01116 1-169 isoform P01116-2 G12D): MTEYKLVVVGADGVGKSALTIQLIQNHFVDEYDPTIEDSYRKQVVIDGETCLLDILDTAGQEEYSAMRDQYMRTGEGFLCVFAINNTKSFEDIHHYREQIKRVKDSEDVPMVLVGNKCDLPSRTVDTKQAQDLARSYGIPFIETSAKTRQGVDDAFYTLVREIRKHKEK
The assay is described as above.

The next assay concerns the target T4, KRas^G12R (Homo sapiens, UniProt P01116, G12R).
T4 construct: […]; biotin (biotinylated); purchased Accelegan Inc
Described as above.

A further assay deals with T5, KRas^G12S (Homo sapiens, UniProt P01116, G12S).
T5 construct: […]; biotin (biotinylated); purchased Accelegan Inc
T5 sequence (P01116 1-169 isoform P01116-2 G12S): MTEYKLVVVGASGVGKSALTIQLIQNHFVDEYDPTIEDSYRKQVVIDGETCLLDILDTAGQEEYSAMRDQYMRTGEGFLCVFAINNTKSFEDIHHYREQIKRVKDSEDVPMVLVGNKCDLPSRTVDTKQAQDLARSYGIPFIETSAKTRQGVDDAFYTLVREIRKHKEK
Described as above.

The target of a further assay is T6, KRas^G12V (Homo sapiens, UniProt P01116, G12V).
T6 construct: […]; biotin (biotinylated); purchased Accelegan Inc
T6 sequence (P01116 1-169 isoform P01116-2 G12V): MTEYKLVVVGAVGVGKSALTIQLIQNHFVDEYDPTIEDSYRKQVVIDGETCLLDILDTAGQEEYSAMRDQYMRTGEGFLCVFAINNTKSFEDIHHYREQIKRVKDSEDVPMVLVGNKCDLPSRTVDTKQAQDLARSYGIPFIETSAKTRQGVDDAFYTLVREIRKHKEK
Described as above.

The target in a further assay is KRas^G12C (Homo sapiens, UniProt P01116, G12C). Description: biochemical.
Sequence of KRas^G12C (P01116 1-169 isoform P01116-2 G12C): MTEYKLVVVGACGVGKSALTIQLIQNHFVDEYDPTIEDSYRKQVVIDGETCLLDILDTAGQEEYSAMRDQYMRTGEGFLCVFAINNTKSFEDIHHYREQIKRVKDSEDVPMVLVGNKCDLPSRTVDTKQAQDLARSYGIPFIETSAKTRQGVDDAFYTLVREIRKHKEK
A further assay deals with KRas^G13D (Homo sapiens, UniProt P01116, G13D). Description: biochemical.
Sequence of KRas^G13D (P01116 1-169 isoform P01116-2 G13D): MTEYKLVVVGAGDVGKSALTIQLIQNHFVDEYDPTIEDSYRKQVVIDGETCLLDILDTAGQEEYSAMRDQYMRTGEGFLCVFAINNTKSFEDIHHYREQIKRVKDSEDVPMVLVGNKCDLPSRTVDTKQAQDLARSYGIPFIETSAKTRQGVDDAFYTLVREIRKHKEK
The target in a further assay is KRas^Q61H (Homo sapiens, UniProt P01116, Q61H). In words: biochemical.
Sequence of KRas^Q61H (P01116 1-169 isoform P01116-2 Q61H): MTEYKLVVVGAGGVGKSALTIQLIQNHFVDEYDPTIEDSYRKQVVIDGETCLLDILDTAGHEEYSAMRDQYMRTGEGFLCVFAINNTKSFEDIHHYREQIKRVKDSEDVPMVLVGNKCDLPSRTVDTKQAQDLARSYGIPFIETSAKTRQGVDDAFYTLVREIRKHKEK

T4 sequence (P01116 1-169 isoform P01116-2 G12R): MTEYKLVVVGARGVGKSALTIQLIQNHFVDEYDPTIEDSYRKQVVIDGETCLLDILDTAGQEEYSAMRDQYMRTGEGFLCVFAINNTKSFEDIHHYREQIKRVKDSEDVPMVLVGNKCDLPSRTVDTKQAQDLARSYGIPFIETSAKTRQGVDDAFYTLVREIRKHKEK
T1 sequence (P01116 1-169 isoform P01116-2): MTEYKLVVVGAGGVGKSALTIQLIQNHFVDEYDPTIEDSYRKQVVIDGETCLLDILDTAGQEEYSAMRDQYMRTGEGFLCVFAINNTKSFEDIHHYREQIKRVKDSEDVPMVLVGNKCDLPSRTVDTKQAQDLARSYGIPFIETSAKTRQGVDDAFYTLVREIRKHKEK
Experimental for KRas^G12A: (§1) The ability of a compound to bind to KRas was measured using a TR-FRET displacement assay. […] After a 60-minute incubation at room temperature, the reaction was measured using a BMG LABTECH CLARIO star Plus via TR-FRET. […] The POC values were fit to a 4-parameter IC50 equation and the IC50 value reported.
Experimental for KRas^G12C: as §1
Experimental for KRas^G12D: as §1
Experimental for KRas^G12R: as §1
Experimental for KRas^G12S: as §1
Experimental for KRas^G12V: as §1
Experimental for KRas^G13D: as §1
Experimental for KRas^Q61H: as §1
Experimental for KRas^WT: as §1

As to `CCc1cccc2cccc(N3CCc4c(nc(OCC56CCCN5CCC6)nc4N4Cc5ccnn5CC(O)C4)C3)c12` (stereo not drawn) [Example 50, 5-(7-(8-ethylnaphthalen-1-yl)-2-((hexahydro-1H-pyrrolizin-7a-yl)methoxy)-5,6,7,8-tetrahydropyrido[3,4-d]pyrimidin-4-yl)-5,6,7,8-tetrahydro-4H-pyrazolo[1,5-a][1,4]diazepin-7-ol], the half-maximal inhibitory concentration (IC50) turned out to be 613 nM at KRas^WT; 569 nM on KRas^G12A; 219 nM on KRas^G12D; 284 nM on KRas^G12R; 330 nM on KRas^G12S; 342 nM on KRas^G12V. Further, the half-inhibitory concentration (IC50) against KRas^G12C worked out at 299 nM; on KRas^G13D, 800 nM; at KRas^Q61H, 808 nM.

On to `CCc1cccc2cccc(N3CCc4c(nc(OCC56CCCN5CCC6)nc4N4CCCn5nccc5C4)C3)c12` [Example 51, 4-(7,8-dihydro-4H-pyrazolo[1,5-a][1,4]diazepin-5(6H)-yl)-7-(8-ethylnaphthalen-1-yl)-2-((hexahydro-1H-pyrrolizin-7a-yl)methoxy)-5,6,7,8-tetrahydropyrido[3,4-d]pyrimidine], for which the IC50 on KRas^WT was found to be 1370 nM; on KRas^G12A, 1260 nM; at KRas^G12D, 309 nM; on KRas^G12R it was 492 nM; at KRas^G12S it was 669 nM; at KRas^G12V, 652 nM. In addition, the 50% inhibitory concentration (IC50) at KRas^G12C is 564 nM; against KRas^G13D, 2030 nM; on KRas^Q61H, 1930 nM.

Take `CCc1cccc2cccc(N3CCc4c(nc(OCC56CCCN5CCC6)nc4N4CC5CNC(=O)C5C4)C3)c12` (stereo not drawn) [Example 52, 5-(7-(8-ethylnaphthalen-1-yl)-2-((hexahydro-1H-pyrrolizin-7a-yl)methoxy)-5,6,7,8-tetrahydropyrido[3,4-d]pyrimidin-4-yl)hexahydropyrrolo[3,4-c]pyrrol-1(2H)-one]: the half-maximal inhibitory concentration (IC50) on KRas^WT was 2220 nM; on KRas^G12A, 1270 nM; on KRas^G12D it was 1230 nM; on KRas^G12R, 723 nM; on KRas^G12S, 584 nM; at KRas^G12V, 348 nM. Moreover, the results for the IC50 at KRas^G12C, against KRas^G13D and against KRas^Q61H were 662 nM, 1150 nM and 1420 nM, respectively.

As for `CCc1cccc2cccc(N3CCc4c(nc(OCC56CCCN5CCC6)nc4N4CCCC(c5ncn[nH]5)C4)C3)c12` (stereo not drawn) [Example 53, 4-(3-(1H-1,2,4-triazol-5-yl)piperidin-1-yl)-7-(8-ethylnaphthalen-1-yl)-2-((hexahydro-1H-pyrrolizin-7a-yl)methoxy)-5,6,7,8-tetrahydropyrido[3,4-d]pyrimidine], the IC50 on KRas^WT came out at 894 nM; at KRas^G12A, 548 nM; at KRas^G12D, 2720 nM; on KRas^G12R it was 397 nM; at KRas^G12S, 854 nM; at KRas^G12V it was 937 nM. The concentration for half-maximal inhibition (IC50) against KRas^G12C turned out to be 741 nM; against KRas^G13D, 1180 nM; on KRas^Q61H, 1150 nM.

For `CCc1cccc2cccc(N3CCc4c(nc(OCC56CCCN5CCC6)nc4N4CCCCCCC4)C3)c12` [Example 54, 4-(azocan-1-yl)-7-(8-ethylnaphthalen-1-yl)-2-((hexahydro-1H-pyrrolizin-7a-yl)methoxy)-5,6,7,8-tetrahydropyrido[3,4-d]pyrimidine], the concentration for half-maximal inhibition (IC50) at KRas^WT is 943 nM; at KRas^G12A it was 767 nM; at KRas^G12D, 1460 nM; at KRas^G12R, 663 nM; on KRas^G12S, 924 nM; at KRas^G12V it was 707 nM. Further, the IC50 turned out to be 755 nM against KRas^G12C, 1080 nM on KRas^G13D and 1230 nM at KRas^Q61H.

Regarding `CCc1cccc2cccc(N3CCc4c(nc(OCC56CCCN5CCC6)nc4N4CCCc5ncccc5C4)C3)c12` [Example 55, 6-(7-(8-ethylnaphthalen-1-yl)-2-((hexahydro-1H-pyrrolizin-7a-yl)methoxy)-5,6,7,8-tetrahydropyrido[3,4-d]pyrimidin-4-yl)-6,7,8,9-tetrahydro-5H-pyrido[3,2-c]azepine], the 50% inhibitory concentration (IC50) on KRas^WT turned out to be 2900 nM; on KRas^G12A it was 2080 nM; at KRas^G12D it was 1160 nM; on KRas^G12R it was 744 nM; on KRas^G12S, 1160 nM; at KRas^G12V, 1100 nM. Besides, the 50% inhibitory concentration (IC50) at KRas^G12C was 893 nM; against KRas^G13D it was 3860 nM; against KRas^Q61H, 4550 nM.

With `CCc1cccc2cccc(N3CCc4c(nc(OCC56CCCN5CCC6)nc4N4CCCn5nc(C)cc5C4)C3)c12` [Example 56, 7-(8-ethylnaphthalen-1-yl)-2-((hexahydro-1H-pyrrolizin-7a-yl)methoxy)-4-(2-methyl-7,8-dihydro-4H-pyrazolo[1,5-a][1,4]diazepin-5(6H)-yl)-5,6,7,8-tetrahydropyrido[3,4-d]pyrimidine], the IC50 stood at 5120 nM at KRas^WT; 3010 nM on KRas^G12A; 874 nM on KRas^G12D; 1810 nM on KRas^G12R; 2030 nM on KRas^G12S; 1620 nM on KRas^G12V. For the same molecule, the IC50 is 1650 nM against KRas^G12C, 5720 nM on KRas^G13D and 5560 nM against KRas^Q61H.

For `O=C1NC(=O)C2CN(c3nc(OCC45CCCN4CCC5)nc4c3CCN(c3cccc5cccc(Br)c35)C4)CC12` (stereo not drawn) [Example 78, 5-(7-(8-bromonaphthalen-1-yl)-2-((hexahydro-1H-pyrrolizin-7a-yl)methoxy)-5,6,7,8-tetrahydropyrido[3,4-d]pyrimidin-4-yl)tetrahydropyrrolo[3,4-c]pyrrole-1,3(2H,3aH)-dione], the IC50 was 73 nM on KRas^WT; 59 nM at KRas^G12A; 30 nM on KRas^G12D; 81 nM on KRas^G12R; 22 nM at KRas^G12S; 41 nM at KRas^G12V. Besides, the values for the IC50 at KRas^G12C, against KRas^G13D and at KRas^Q61H were 80 nM, 67 nM and 112 nM, respectively.

For the molecule `O=C1NC(=O)C2CN(c3nc(OCC45CCCN4CCC5)nc4c3CCN(c3cccc5cccc(Cl)c35)C4)CC12` (stereo not drawn) [Example 79, 5-(7-(8-chloronaphthalen-1-yl)-2-((hexahydro-1H-pyrrolizin-7a-yl)methoxy)-5,6,7,8-tetrahydropyrido[3,4-d]pyrimidin-4-yl)tetrahydropyrrolo[3,4-c]pyrrole-1,3(2H,3aH)-dione], the IC50 at KRas^WT is 109 nM; on KRas^G12A, 128 nM; on KRas^G12D it was 53 nM; on KRas^G12R, 135 nM; at KRas^G12S, 35 nM; on KRas^G12V, 67 nM. In addition, the IC50 worked out at 116 nM against KRas^G12C, 111 nM against KRas^G13D and 151 nM at KRas^Q61H.

`Cc1cccc2cccc(N3CCc4c(nc(OCC56CCCN5CCC6)nc4N4CC5C(=O)NC(=O)C5C4)C3)c12` (stereo not drawn) [Example 80, 5-(2-((hexahydro-1H-pyrrolizin-7a-yl)methoxy)-7-(8-methylnaphthalen-1-yl)-5,6,7,8-tetrahydropyrido[3,4-d]pyrimidin-4-yl)tetrahydropyrrolo[3,4-c]pyrrole-1,3(2H,3aH)-dione]: the IC50 at KRas^WT was found to be 200 nM; at KRas^G12A it was 428 nM; at KRas^G12D it was 121 nM; at KRas^G12R, 285 nM; on KRas^G12S, 68 nM; on KRas^G12V it was 130 nM. The values for the half-maximal inhibitory concentration (IC50) at KRas^G12C, on KRas^G13D and against KRas^Q61H were 211 nM, 213 nM and 260 nM, respectively.
